Experimental data: US11213535B2, “Composition containing phytic acid, magnesium and polyphenols for the treatment or prevention of renal lithiasis” (UNIVERSITAT DE LES ILLES BALEARS, priority 2014, dated 2022)

Test: induction time of calcium oxalate crystallization in synthetic urine
Settings: 200 mg/L calcium and 50 mg/L oxalate
Experimental: Thus, when there is neither magnesium nor phytate, the calcium oxalate takes 1 minute to crystallize. This time increases up to 10 minutes when […] magnesium is added and, in turn, it increases up to 44 minutes if, in addition to the 10 mg/L magnesium, 1 mg/L phytate is added.

**Q.** Which “induction times of crystallization t” value (0 mg/L phytate, 25 mg/L Mg) does the source give for `[Mg+2]` [Mg, magnesium] here?
**A.** 1.5 min

**Q.** And the “induction times of crystallization t” value (0 mg/L phytate, 75 mg/L Mg)?
**A.** 6 min

**Q.** And the “induction times of crystallization t” value (0 mg/L phytate, 100 mg/L Mg)?
**A.** 10 min

**Q.** What about the “time calcium oxalate takes to crystallize (induction time)” value (100 mg/L magnesium, no phytate) of the same molecule?
**A.** 10 min

**Q.** Which “induction times of crystallization t” value (0.5 mg/L phytate, 0 mg/L Mg) does the source give for `O=P(O)(O)O[C@H]1[C@H](OP(=O)(O)O)[C@@H](OP(=O)(O)O)[C@H](OP(=O)(O)O)[C@@H](OP(=O)(O)O)[C@H]1OP(=O)(O)O` [phytate, myo-inositol-hexaphosphate] here?
**A.** 3 min

**Q.** What about the “induction times of crystallization t” value (0.75 mg/L phytate, 0 mg/L Mg) of the same molecule?
**A.** 4 min

**Q.** And the “induction times of crystallization t” value (1 mg/L phytate, 0 mg/L Mg)?
**A.** 6.5 min
